The text below walks through data of patent US20200138727A1, “ENHANCED THERAPEUTIC AGENT AND NUCLEIC ACID DELIVERY VIA HDL OR RECONSTITUTED HDL NANOPARTICLES” (UNIVERSITY OF NORTH TEXAS HEALTH SCIENCE CENTER, priority 2017, published 2020).

One experiment has as its system cancer cells. The note with it: encapsulated by HDL delivery particles; HDL receptor mediated mechanism (Lacko et al., 2002); cited from earlier work.
Experiment [1] has as its system DU-145 (prostate cancer) cells. Description: Confocal / fluorescence lifetime microscopy of doxorubicin uptake from rHDL-Doxorubicin nanoparticles. It is filed as cell-based. On the procedure:
The data presented in FIGS. 11-12 were obtained via fluorescence lifetime microscopy via the following protocols. Apo A-I was labeled with Alexa Fluor 647 (Fluorescent dye Excitation: 650 nm; Emission:665 nm), using Alexa Fluor™ 647 Antibody Labeling Kit (by Thermo Fisher) according to the manufacturer's protocol. The rHDL-Doxorubicin nanoparticles were prepared with the Alexa Fluor 647 labeled Apo A-I, using the cholate dialysis protocol. The DU-145 (prostate cancer) cells were treated with the rHDL-Doxorubicin nanoparticles at 37° C./5% CO2 and observed under confocal microscopy for uptake of doxorubicin. In order to inhibit the uptake, […] antibody was used to block the receptor activity.
For imaging, the cells were plated on custom glass bottom petri dishes. Before imaging, the cells were washed with PBS, and doped with several concentrations of free or rHDL-doxorubicin formulations. For SR-B1 receptor blocking, the DU-145 cells were incubated with antibodies for SR-B1 receptor for 30 minutes at 5% CO2 and 37° C. The cells were excited with a 470 nm diode at 70% power, and the emission imaged at 600 nm. […] For dual label experiments, the samples were excited at 470 nm and 630 nm, with a 520 nm long pass filter on channel 1 to observe DOX fluorescence, and a 647 nm long pass on filter on channel 2 to observe […] emission. […]

In the case of `CC(=O)O[C@H]1C(=O)[C@@]2(C)[C@H]([C@H](OC(=O)c3ccccc3)[C@]3(O)C[C@H](OC(=O)[C@H](O)[C@@H](NC(=O)c4ccccc4)c4ccccc4)C(C)=C1C3(C)C)[C@]1(OC(C)=O)CO[C@@H]1C[C@@H]2O` [paclitaxel], in the experiment on cancer cells, the “uptake by cancer cells” value is “taken up by cancer cells”.

For the molecule “Alexa 647-conjugated Apo A-I: Apo A-I labeled with Alexa Fluor 647 fluorescent dye”, the “cellular localization of labeled Apo A-I” value in experiment [1] (DU-145 cells treated with rHDL-Doxorubicin nanoparticles prepared with labeled Apo A-I, FIG. 11B) was “only localized in the membrane of the cell and does not enter the cell”.

On to `COc1cccc2c1C(=O)c1c(O)c3c(c(O)c1C2=O)C[C@@](O)(C(=O)CO)C[C@@H]3O[C@H]1C[C@H](N)[C@H](O)[C@H](C)O1` [doxorubicin], for which the “cellular localization of doxorubicin” value in experiment [1] (DU-145 cells treated with rHDL-Doxorubicin nanoparticles, FIG. 11A, FIG. 12) is “released into the cell cytoplasm”.
